Blank lines part the entries; values can stand above or below the compound they belong to. The source made the active and inactive calls. The rule behind the calls is not given here.
Experiments:
[1] = system: HaCaT; experiment: Cytotoxicity against human HaCaT cells assessed as LDH level at 2 uM incubated for 4 hrs; format: cell-based
[2] = system: HaCaT; experiment: Antihyperproliferative activity against human HaCaT cells after 48 hrs by phase contrast microscopic analysis; format: functional, cell-based
[3] = molecular target: T1, NADPH--cytochrome P450 reductase (Homo sapiens, UniProt P16435); experiment: Activity at human recombinant CPR assessed as superoxide generation at 100 umol/ml by spectrophotometric assay
T1 sequence (P16435 whole entry): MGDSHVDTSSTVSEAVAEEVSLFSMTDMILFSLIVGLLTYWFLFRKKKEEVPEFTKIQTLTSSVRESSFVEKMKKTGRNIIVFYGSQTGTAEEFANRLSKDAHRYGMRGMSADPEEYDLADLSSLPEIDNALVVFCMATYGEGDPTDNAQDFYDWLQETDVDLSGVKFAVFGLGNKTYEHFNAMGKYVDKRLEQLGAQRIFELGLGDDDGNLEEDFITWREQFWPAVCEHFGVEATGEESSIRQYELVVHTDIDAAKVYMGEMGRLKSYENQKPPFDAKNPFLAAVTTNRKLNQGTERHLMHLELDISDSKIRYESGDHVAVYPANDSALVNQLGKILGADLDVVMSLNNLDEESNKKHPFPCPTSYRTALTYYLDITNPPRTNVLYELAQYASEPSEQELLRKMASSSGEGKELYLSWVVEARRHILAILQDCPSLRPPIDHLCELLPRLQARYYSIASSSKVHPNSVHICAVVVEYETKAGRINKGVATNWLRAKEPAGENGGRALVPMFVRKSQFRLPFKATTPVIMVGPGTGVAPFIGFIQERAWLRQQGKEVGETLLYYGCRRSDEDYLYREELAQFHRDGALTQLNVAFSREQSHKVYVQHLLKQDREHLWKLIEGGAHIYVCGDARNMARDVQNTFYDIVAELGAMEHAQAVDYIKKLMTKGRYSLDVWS

[4] = molecular target: NAD(P)H dehydrogenase [quinone] 1 (Homo sapiens) (UniProt P15559); experiment: Activity at human recombinant NQO1 assessed as superoxide generation at 25 umol/ml by spectrophotometric assay
Sequence of NAD(P)H dehydrogenase [quinone] 1 (Homo sapiens) (P15559 whole entry): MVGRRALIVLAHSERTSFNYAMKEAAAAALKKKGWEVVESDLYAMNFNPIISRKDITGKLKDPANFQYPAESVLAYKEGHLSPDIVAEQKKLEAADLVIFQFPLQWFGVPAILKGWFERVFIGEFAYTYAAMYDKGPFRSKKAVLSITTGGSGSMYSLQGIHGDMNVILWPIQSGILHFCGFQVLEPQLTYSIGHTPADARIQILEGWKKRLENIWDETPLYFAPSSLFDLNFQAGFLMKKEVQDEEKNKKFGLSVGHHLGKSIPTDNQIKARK

[5] = system: HaCaT; experiment: Increase in superoxide generation in human HaCaT cells at 5 uM incubated for 18 hrs by DHE-based flow cytometric analysis; format: functional, cell-based
[6] = system: HaCaT; experiment: Increase in superoxide generation in human HaCaT cells at 5 uM incubated for 18 hrs pretreated with 5 umol/L NQO1 inhibitor dicoumarol for 25 mins followed by compound addition by DHE-based flow cytometric analysis; format: functional, cell-based

Structure (SMILES): COC(=O)c1cc2c(s1)C(=O)c1c(Br)cccc1C2=O
- Activity [1]: 124 mU/ml
- IC50 [2]: 2200 nM

Structure (SMILES): O=Cc1cc2c(s1)C(=O)c1c(Br)cccc1C2=O
- IC50 [2]: 3820 nM

Structure (SMILES): O=Cc1cc2c(s1)C(=O)c1c(Cl)cccc1C2=O
- Activity [1]: 107 mU/ml
- IC50 [2]: 4700 nM

Structure (SMILES): O=C(c1cccnc1)c1cc2c(s1)C(=O)c1c(Cl)cccc1C2=O
- Activity [1]: 125 mU/ml
- IC50 [2]: 570 nM

Structure (SMILES): O=C1c2ccsc2C(=O)c2c1cccc2C(F)(F)F
- IC50 [2]: 4850 nM

Structure (SMILES): COC(=O)c1cc2c(s1)C(=O)c1c(Cl)cccc1C2=O
- Activity [1]: 130 mU/ml
- IC50 [2]: 900 nM

Structure (SMILES): O=C1c2ccsc2C(=O)c2c(I)cccc21
- IC50 [2]: > 30000 nM

Structure (SMILES): O=C1c2ccsc2C(=O)c2c(Br)cccc21
- IC50 [2]: 14800 nM

- Activity [3]: Active
- Activity [4]: inactive
Structure (SMILES): CCc1noc(-c2cc3c(s2)C(=O)c2c(Cl)cccc2C3=O)n1
- Activity [1]: 121 mU/ml
- IC50 [2]: 590 nM
- Activity [5]: Active
- Activity [6]: Active

- Activity [3]: Active
Structure (SMILES): CC(=O)c1cc2c(s1)C(=O)c1c(O)cccc1C2=O
- Activity [1]: 319 mU/ml
- Activity [5]: Active
- Activity [6]: Active

Structure (SMILES): CCNC(=O)c1cc2c(s1)C(=O)c1c(Cl)cccc1C2=O
- Activity [1]: 109 mU/ml
- IC50 [2]: 1050 nM

- Activity [3]: Active
Structure (SMILES): CCc1noc(-c2cc3c(s2)C(=O)c2c(O)cccc2C3=O)n1
- Activity [5]: Active
- Activity [6]: Active

Structure (SMILES): CCC(=O)c1cc2c(s1)C(=O)c1c(Cl)cccc1C2=O
- Activity [1]: 116 mU/ml
- IC50 [2]: 2750 nM

Structure (SMILES): O=C(Oc1ccccc1)c1cc2c(s1)C(=O)c1c(Br)cccc1C2=O
- IC50 [2]: 6640 nM

Structure (SMILES): CC(=O)c1cc2c(s1)C(=O)c1ccccc1C2=O
- Activity [1]: 253 mU/ml

Structure (SMILES): O=C(Nc1ccccc1)c1cc2c(s1)C(=O)c1c(Cl)cccc1C2=O
- Activity [1]: 121 mU/ml
- IC50 [2]: > 30000 nM

Structure (SMILES): O=C(c1ccccc1)c1cc2c(s1)C(=O)c1c(Cl)cccc1C2=O
- Activity [1]: 122 mU/ml
- IC50 [2]: 1770 nM

- Activity [3]: Active
Structure (SMILES): CC1=CC(=O)c2ccccc2C1=O [MENADIONE]

- Activity [3]: Active
Structure (SMILES): CC(=O)c1cc2c(s1)C(=O)c1c(Cl)cccc1C2=O
- Activity [1]: 124 mU/ml
- Activity [5]: Active
- Activity [6]: Active

Structure (SMILES): O=C(Oc1ccccc1)c1cc2c(s1)C(=O)c1c(Cl)cccc1C2=O
- Activity [1]: 97 mU/ml
- IC50 [2]: 10500 nM

- Activity [3]: Active
- Activity [4]: inactive
Structure (SMILES): O=C1c2ccsc2C(=O)c2c(Cl)cccc21
- Activity [5]: Active
- Activity [6]: Active

Structure (SMILES): O=C1c2cc(-c3nnn[nH]3)sc2C(=O)c2c(Cl)cccc21
- Activity [1]: 95 mU/ml
- IC50 [2]: > 30000 nM

Structure (SMILES): CCOC(=O)c1cc2c(s1)C(=O)c1c(Cl)cccc1C2=O
- Activity [1]: 97 mU/ml
- IC50 [2]: 1220 nM

Structure (SMILES): CCN(CC)C(=O)c1cc2c(s1)C(=O)c1c(Cl)cccc1C2=O
- Activity [1]: 112 mU/ml
- IC50 [2]: 720 nM

Structure (SMILES): O=C(c1cccnc1)c1cc2c(s1)C(=O)c1c(Br)cccc1C2=O
- IC50 [2]: 8630 nM

Structure (SMILES): CCOC(=O)c1cc2c(s1)C(=O)c1c(Br)cccc1C2=O
- Activity [1]: 121 mU/ml
- IC50 [2]: 1720 nM

- Activity [3]: Active
Structure (SMILES): O=C1c2ccsc2C(=O)c2c(O)cccc21
- Activity [5]: Active
- Activity [6]: Active

Structure (SMILES): O=C(O)c1cc2c(s1)C(=O)c1c(Cl)cccc1C2=O
- Activity [1]: 112 mU/ml
- IC50 [2]: > 30000 nM

Structure (SMILES): O=C(O)c1cc2c(s1)C(=O)c1c(Br)cccc1C2=O
- Activity [1]: 108 mU/ml
- IC50 [2]: > 30000 nM

Structure (SMILES): CCC(=O)c1cc2c(s1)C(=O)c1c(Br)cccc1C2=O
- Activity [1]: 113 mU/ml
- IC50 [2]: 2910 nM

Structure (SMILES): O=C1c2ccsc2C(=O)c2c(F)cccc21
- IC50 [2]: 8500 nM

Structure (SMILES): CC(=O)c1cc2c(s1)C(=O)c1c(Br)cccc1C2=O
- Activity [1]: 116 mU/ml
- IC50 [2]: 1500 nM

Structure (SMILES): O=C(c1ccccc1)c1cc2c(s1)C(=O)c1c(Br)cccc1C2=O
- Activity [1]: 121 mU/ml
- IC50 [2]: 13200 nM

Structure (SMILES): O=C(c1cccs1)c1cc2c(s1)C(=O)c1c(Br)cccc1C2=O
- Activity [1]: 107 mU/ml
- IC50 [2]: 11900 nM

Structure (SMILES): O=C(c1cccs1)c1cc2c(s1)C(=O)c1c(Cl)cccc1C2=O
- Activity [1]: 127 mU/ml
- IC50 [2]: 1540 nM

— ChEMBL document CHEMBL3763096, “8-Halo-substituted naphtho[2,3-b]thiophene-4,9-diones as redox-active inhibitors of keratinocyte hyperproliferation with reduced membrane-damaging properties” (Eur J Med Chem, 2016)
